This passage reports Km results from paper PMC3144492 (Biochemistry, 2011).

The test system of the assay is SpUP. The note with it: 50 mM phosphate (co-substrate), 50 mM HEPES, pH 7.5.

By Km is commonly meant the substrate concentration at which the rate is half of its maximum.

With `O=c1ccn([C@@H]2O[C@H](CO)[C@@H](O)[C@H]2O)c(=O)[nH]1` [uridine], the Michaelis constant (Km) was determined as 171 ± 5 µM.
